Source: patent publication US20050019825A9, “Common ligand mimics: pseudothiohydantoins” (priority 2002, published 2005)
Like-named read-outs stand apart in the source and are kept apart here.

Tests used:
[1] = target: dihydrodipicolinate reductase (DHPR) (Escherichia coli, UniProt P04036); assay: DHPR kinetic assay, spectrophotometric oxidation of NADPH (340 nm); format: biochemical
Method: For DHPR analysis, the compounds were screened using a kinetic protocol that spectrophotometrically evaluates oxidation of NADPH.
Stock solutions of each of the reagents were prepared in the following concentrations. Dilutions of the stock solutions were prepared prior to running the assay in the concentrations indicated below. DHPR was diluted in 10 mM HEPES at a pH of 7.4. DHPS (dihydrodipicolinate synthase) was not diluted and was stored in eppindorf tubes.
The L-ASA (L-aspartate semialdehyde) solution was prepared in the following manner. 180 μM stock solution of ASA was prepared. 100 μl of the ASA stock solution was mixed with 150 μl of concentrated NaHCO3 and 375 μl of H2O. For use in the assay, 28.8 mM L-ASA was equal to 625 μl of the solution. The L-ASA stock solution was kept at a temperature of −20° C. After dilution, the pH of the 28.8 mM solution was checked and maintained between 1 and 2.
The DHPS reaction was monitored at 340 nm prior to and after addition of the inhibitor to detect background reaction with the inhibitor. The solution for background detection was a 945 μl solution containing 0.1 HEPES (pH 7.8), 1 mM pyruvate, 6 μM NADPH, 40 μM L-ASA, and 7 μl of 1 mg/ml DHPS at 25° C. in the volumes provided above. The sample solution was then mixed and incubated for 10 minutes. Next, 500 nM solutions of the inhibitors and enough DMSO to provide a final DMSO concentration of 5% of the total assay volume were added. The solution was mixed and incubated for an additional 6 minutes.
In DHPR samples, 5 μl of the diluted DHPR enzyme were added. The sample was mixed for 20 seconds and then the reaction was run for 10 minutes. After a 50 second lag, the samples were read in a Cary spectrophotometer at 340 nm. Reading of the samples was continued until 300 seconds. Cuvette #1 contained the control reaction (no inhibitor), and cuvette #2 contained the positive control reaction in which Cibacron Blue at 2.58 μM was substituted for inhibitor to yield 70 to 80% inhibition. The substrate was kept at a level at least 10 times the Km. The final concentration of L-ASA was about 1 mM.

[2] = target: glyceraldehyde-3-phosphate dehydrogenase (GAPDH) (Escherichia coli, UniProt P0A9B2); assay: GAPDH kinetic assay, spectrophotometric reduction of NAD+ (340 nm); format: biochemical, E. coli; conditions: for inhibition of GAPDH (in words): Example 24 (FIG. 6)
Sequence of glyceraldehyde-3-phosphate dehydrogenase (GAPDH) (P0A9B2 whole entry): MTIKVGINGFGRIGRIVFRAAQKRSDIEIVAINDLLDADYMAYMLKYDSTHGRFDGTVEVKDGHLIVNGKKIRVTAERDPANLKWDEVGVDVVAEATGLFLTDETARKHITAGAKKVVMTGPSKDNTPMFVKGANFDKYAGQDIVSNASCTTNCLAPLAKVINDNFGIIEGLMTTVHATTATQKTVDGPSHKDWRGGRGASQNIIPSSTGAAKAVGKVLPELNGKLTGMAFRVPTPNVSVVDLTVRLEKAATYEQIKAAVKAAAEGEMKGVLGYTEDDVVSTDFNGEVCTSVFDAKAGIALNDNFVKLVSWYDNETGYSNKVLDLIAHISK
Method: For GAPDH analysis, the compounds were screened using a kinetic protocol that spectrophotometrically evaluates reduction of NAD+.
(§1) Stock solutions of each of the reagents were prepared in the following concentrations. Dilutions of the stock solutions were prepared prior to running the assay in the concentrations indicated below.
The GAPDH reaction was monitored at 340 nm prior to and after addition of the inhibitor to detect background reaction with the inhibitor. Solutions of 100 μl of the inhibitors incubated for 6 minutes at 25° C. in a 990 μl of a solution containing 125 mM triethanolamine, pH 7.5, 145 μM glyceraldehyde 3-phosphate (GAP), 0.211 mM NAD, 5 mM sodium arsenate, and 3 mM β-metcaptoethanol (2-BME). The reaction was then initiated with 10 μl of E. coli GAPDH (1:200 dilution of 1.0 mg/ml). After the enzyme was added, the solution was mixed for 20 seconds, and the reaction was run for 10minutes. After a 50 second lag, the samples were read in a Cary spectrophotometer at 340 nm. Reading of the samples was continued until 300 seconds. The final concentration of DMSO in a cuvette was about 5% of the total assay volume. Cuvette #1 contained the control reaction (no inhibitor).
GAP for use in this experiment was deprotected from the diethyl acetal in the following manner. Water was boiled in recrystallizing dish. Dowex (1.5 mg) and GAP (200 mg; SIGMA G-5376) were weighed and placed in a 15 ml conical tube. The Dowex and GAP were resuspended in 2 ml dH2O, followed by shaking of the tube until the GAP dissolved. The tube was then immersed, while shaking, in the boiling water for 3 minutes. Next, the tube was placed in an ice bath to cool for 5 minutes. As the sample cooled, a resin settled to the bottom of the test tube, allowing removal of the supernatant with a pasteur pipette. The supernatant was filtered through a 0.45 or 0.2 μM cellulose acetate syringe filter.
The filtered supernatant was retained, and another 1 ml of dH2O was added to the resin tube. The tube was then shaken and centrifuged for 5 minutes at 3,000 rpm. The supernatant was again removed with a pasteur pipette and passed through a 0.45 or 0.2 μM cellulose acetate syringe filter. The two supernatant aliquots were then pooled to provide a total GAP concentration of about 50 mM. The GAP was then divided into 100 μl aliquots and stored at −20° C. until use.

[3] = target: T1, lactate dehydrogenase (LDH) (Oryctolagus cuniculus, UniProt P13491); assay: LDH kinetic assay, spectrophotometric oxidation of NADH (340 nm); format: biochemical, Rabbit; conditions: for IC50: common ligand mimics, Examples 23/24, LDH from Rabbit Muscle
T1 construct: 10 μl of LDH from Rabbit Muscle; from tissue; host or cells: rabbit muscle
Method: For LDH analysis, the compounds were screened using a kinetic protocol that spectrophotometrically evaluates oxidation of NADH.
as §1
The LDH reaction was monitored at 340 nm prior to and after addition of the inhibitor to detect background reaction with the inhibitor. Solutions of 100 μl of the inhibitors in DMSO were prepared to provide a final DMSO concentration of 5% of the total assay volume. These solutions were incubated for 6 minutes at 25° C. in a 990 μl of a solution containing 0.1 M HEPES, pH 7.4, 10 μM NADH, and 2.5 mM of pyruvate. The reaction was then initiated with 10 μl of LDH from Rabbit Muscle (0.5 μg/ml; 1:2000 dilution of 1.0 mg/ml). After the enzyme was added, the solution was mixed for 20 seconds, and the reaction was run for 10 minutes. After a 50 second lag, the samples were read in a Cary spectrophotometer at 340 nm. Reading of the samples was continued until 300 seconds. Cuvette #1 contained the control reaction (no inhibitor), and cuvette #2 contained the positive control reaction in which Cibacron Blue at 10.3 μM was substituted for inhibitor to yield 50 to 70% inhibition. The substrate was kept at a level at least 10 times the Km.

[4] = common ligand mimics, Examples 23/24 (FIG. 5, FIG. 6), read-out: IC50 for DHPR

Sequence of dihydrodipicolinate reductase (DHPR) (P04036 whole entry): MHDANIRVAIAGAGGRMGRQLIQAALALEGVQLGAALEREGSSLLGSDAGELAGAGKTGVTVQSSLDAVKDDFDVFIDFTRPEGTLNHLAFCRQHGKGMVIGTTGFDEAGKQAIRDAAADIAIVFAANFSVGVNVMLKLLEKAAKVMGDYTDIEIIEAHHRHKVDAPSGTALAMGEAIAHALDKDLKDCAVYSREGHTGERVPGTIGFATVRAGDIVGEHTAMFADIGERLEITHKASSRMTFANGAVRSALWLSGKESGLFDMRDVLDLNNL

Row | Compound | IC50 [1, 4] [µM] | inhibition of GAPDH (in words) [2] | IC50 [3] [µM] | IC50 [1] [µM] | other results
1 | COc1cc(O)ccc1C=C1SC(=N)NC1=O [5-(4-hydroxy-2-methoxy-benzylidene)-2-imino-thiazolidin-4-one] | > 75 | no inhibition |  |  | 
2 | N=C1NC(=O)C(=Cc2ccc(C(=O)O)cc2)S1 [4-(2-imino-4-oxo-thiazolidin-5-ylidenemethyl)-benzoic acid] | > 25 | no inhibition | > 100 |  | IC50 ([2]; common ligand mimics, Examples 23/24, E. coli GAPDH, read-out: IC50 for GAPDH): > 100 µM
3 | COc1cc(C=C2SC(N)=NC2=O)ccc1O [5-(4-hydroxy-3-methoxy-benzylidene)-2-imino-thiazolidin-4-one] |  |  | > 100 | > 75 | 
4 | Nc1c(S(=O)(=O)O)cc(Nc2ccc(Nc3nc(Cl)nc(Nc4ccccc4S(=O)(=O)O)n3)c(S(=O)(=O)O)c2)c2c1C(=O)c1ccccc1C2=O [Cibacron Blue, reference compound] |  |  |  |  | inhibition at 2.58 µM ([1]; Cibacron Blue at 2.58 μM, read-out: inhibition of DHPR, positive control): 70 to 80%; inhibition at 10.3 µM ([3]; Cibacron Blue at 10.3 μM, read-out: inhibition of LDH, positive control): 50 to 70%
5 | N=C1NC(=O)C(=Cc2ccc(O)c([N+](=O)[O-])c2)S1 [5-(4-hydroxy-3-nitro-benzylidene)-2-imino-thiazolidin-4-one] |  |  | 27.9 | > 100 | IC50 [2]: 153 µM
